Strand notation (5' to 3'): a small letter for the sugar, then the base; units joined by * are phosphorothioate-linked, units joined directly phosphodiester-linked; [ ] holds rarer units or linkages, { } end groups; capitals alone tell only the bases. e = 2'-O-(2-methoxyethyl) (MOE); [5mC] = 5-methylcytosine; d = 2'-deoxy (DNA)
test system: human LIM domain kinase 1 mRNA; assay: Antisense inhibition of human LIM domain kinase 1 mRNA levels, quantitative real-time PCR, A549 cells (screen); type: cell-based; details: real-time PCR, bound stated
In short: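 A549 cells at 70% confluency treated with antisense oligonucleotides (all cytidines 5-methylcytidine), harvested 16-24 h later. LIMK1 mRNA measured by real-time RT-PCR with FAM/TAMRA probe, normalized to total RNA by RiboGreen; values are averages of two experiments.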

Substance | inhibition of human LIM domain kinase 1 expression (text summary of Table 1)
ccaggtgagtgtgcaaggca (e[5mC]*e[5mC]*eA*eG*eG*dT*dG*dA*dG*dT*dG*dT*dG*d[5mC]*dA*eA*eG*eG*e[5mC]*eA; antisense) [ISIS 206230] | at least 65%
cctccagggagctatggacc (e[5mC]*e[5mC]*eT*e[5mC]*e[5mC]*dA*dG*dG*dG*dA*dG*d[5mC]*dT*dA*dT*eG*eG*eA*e[5mC]*e[5mC]; antisense) [ISIS 206210] | at least 65%
cgccatagcgggcccagtag (e[5mC]*eG*e[5mC]*e[5mC]*eA*dT*dA*dG*d[5mC]*dG*dG*dG*d[5mC]*d[5mC]*d[5mC]*eA*eG*eT*eA*eG; antisense) [ISIS 206176] | at least 65%
ctcagacccttgagttactg (e[5mC]*eT*e[5mC]*eA*eG*dA*d[5mC]*d[5mC]*d[5mC]*dT*dT*dG*dA*dG*dT*eT*eA*e[5mC]*eT*eG; antisense) [ISIS 206227] | at least 65%
ctctgggccacggcagagag (e[5mC]*eT*e[5mC]*eT*eG*dG*dG*d[5mC]*d[5mC]*dA*d[5mC]*dG*dG*d[5mC]*dA*eG*eA*eG*eA*eG; antisense) [ISIS 206209] | at least 65%
ctgctgcagccgtatgaaaa (e[5mC]*eT*eG*e[5mC]*eT*dG*d[5mC]*dA*dG*d[5mC]*d[5mC]*dG*dT*dA*dT*eG*eA*eA*eA*eA; antisense) [ISIS 206162] | at least 65%
ctggctgtccatgctcttga (e[5mC]*eT*eG*eG*e[5mC]*dT*dG*dT*d[5mC]*d[5mC]*dA*dT*dG*d[5mC]*dT*e[5mC]*eT*eT*eG*eA; antisense) [ISIS 206200] | at least 65%
cttcctctcccatacgttct (e[5mC]*eT*eT*e[5mC]*e[5mC]*dT*d[5mC]*dT*d[5mC]*d[5mC]*d[5mC]*dA*dT*dA*d[5mC]*eG*eT*eT*e[5mC]*eT; antisense) [ISIS 206169] | at least 65%
gacaggtttctgccgggcag (eG*eA*e[5mC]*eA*eG*dG*dT*dT*dT*d[5mC]*dT*dG*d[5mC]*d[5mC]*dG*eG*eG*e[5mC]*eA*eG; antisense) [ISIS 206190] | at least 65%
gcagctgctgctgcagccgt (eG*e[5mC]*eA*eG*e[5mC]*dT*dG*d[5mC]*dT*dG*d[5mC]*dT*dG*d[5mC]*dA*eG*e[5mC]*e[5mC]*eG*eT; antisense) [ISIS 206215] | at least 65%
gcagtgcccgcagtacagct (eG*e[5mC]*eA*eG*eT*dG*d[5mC]*d[5mC]*d[5mC]*dG*d[5mC]*dA*dG*dT*dA*e[5mC]*eA*eG*e[5mC]*eT; antisense) [ISIS 206179] | at least 65%
gcagtgcccgctgcaagagc (eG*e[5mC]*eA*eG*eT*dG*d[5mC]*d[5mC]*d[5mC]*dG*d[5mC]*dT*dG*d[5mC]*dA*eA*eG*eA*eG*e[5mC]; antisense) [ISIS 206231] | at least 65%
gcatcgcatgaccttcacct (eG*e[5mC]*eA*eT*e[5mC]*dG*d[5mC]*dA*dT*dG*dA*d[5mC]*d[5mC]*dT*dT*e[5mC]*eA*e[5mC]*e[5mC]*eT; antisense) [ISIS 206197] | at least 65%
gccattgatttccaagatcc (eG*e[5mC]*e[5mC]*eA*eT*dT*dG*dA*dT*dT*dT*d[5mC]*d[5mC]*dA*dA*eG*eA*eT*e[5mC]*e[5mC]; antisense) [ISIS 206185] | at least 65%
gctgctgcagccgtatgaaa (eG*e[5mC]*eT*eG*e[5mC]*dT*dG*d[5mC]*dA*dG*d[5mC]*d[5mC]*dG*dT*dA*eT*eG*eA*eA*eA; antisense) [ISIS 206224] | at least 65%
ggaattcttcacatctgggc (eG*eG*eA*eA*eT*dT*d[5mC]*dT*dT*d[5mC]*dA*d[5mC]*dA*dT*d[5mC]*eT*eG*eG*eG*e[5mC]; antisense) [ISIS 206182] | at least 65%
ggagtgaaagcacccagctg (eG*eG*eA*eG*eT*dG*dA*dA*dA*dG*d[5mC]*dA*d[5mC]*d[5mC]*d[5mC]*eA*eG*e[5mC]*eT*eG; antisense) [ISIS 206225] | at least 65%

Substance | inhibition of human LIM domain kinase 1 expression (text summary of Table 1)
ggcccagtagtccttcttgc (eG*eG*e[5mC]*e[5mC]*e[5mC]*dA*dG*dT*dA*dG*dT*d[5mC]*d[5mC]*dT*dT*e[5mC]*eT*eT*eG*e[5mC]; antisense) [ISIS 206174] | at least 65%
ggcgtgccattgatttccaa (eG*eG*e[5mC]*eG*eT*dG*d[5mC]*d[5mC]*dA*dT*dT*dG*dA*dT*dT*eT*e[5mC]*e[5mC]*eA*eA; antisense) [ISIS 206186] | at least 65%
ggtccttgcgctgggaggcc (eG*eG*eT*e[5mC]*e[5mC]*dT*dT*dG*d[5mC]*dG*d[5mC]*dT*dG*dG*dG*eA*eG*eG*e[5mC]*e[5mC]; antisense) [ISIS 206233] | at least 65%
gtcaacctcatgcactcgac (eG*eT*e[5mC]*eA*eA*d[5mC]*d[5mC]*dT*d[5mC]*dA*dT*dG*d[5mC]*dA*d[5mC]*eT*e[5mC]*eG*eA*e[5mC]; antisense) [ISIS 206163] | at least 65%
gtcacaacacctgcaggaga (eG*eT*e[5mC]*eA*e[5mC]*dA*dA*d[5mC]*dA*d[5mC]*d[5mC]*dT*dG*d[5mC]*dA*eG*eG*eA*eG*eA; antisense) [ISIS 206229] | at least 65%
gtctcggtggatgatgttca (eG*eT*e[5mC]*eT*e[5mC]*dG*dG*dT*dG*dG*dA*dT*dG*dA*dT*eG*eT*eT*e[5mC]*eA; antisense) [ISIS 206202] | at least 65%
gtggccctggctcagtcggg (eG*eT*eG*eG*e[5mC]*d[5mC]*d[5mC]*dT*dG*dG*d[5mC]*dT*d[5mC]*dA*dG*eT*e[5mC]*eG*eG*eG; antisense) [ISIS 206207] | at least 65%
gtttctgccgggcagagctg (eG*eT*eT*eT*e[5mC]*dT*dG*d[5mC]*d[5mC]*dG*dG*dG*d[5mC]*dA*dG*eA*eG*e[5mC]*eT*eG; antisense) [ISIS 206189] | at least 65%
tagcgggcccagtagtcctt (eT*eA*eG*e[5mC]*eG*dG*dG*d[5mC]*d[5mC]*d[5mC]*dA*dG*dT*dA*dG*eT*e[5mC]*e[5mC]*eT*eT; antisense) [ISIS 206175] | at least 65%
tcacggtgtgtcaccttgat (eT*e[5mC]*eA*e[5mC]*eG*dG*dT*dG*dT*dG*dT*d[5mC]*dA*d[5mC]*d[5mC]*eT*eT*eG*eA*eT; antisense) [ISIS 206195] | at least 65%
tccaggcatcgcatgacctt (eT*e[5mC]*e[5mC]*eA*eG*dG*d[5mC]*dA*dT*d[5mC]*dG*d[5mC]*dA*dT*dG*eA*e[5mC]*e[5mC]*eT*eT; antisense) [ISIS 206198] | at least 65%
tccttcttgcagaagagctg (eT*e[5mC]*e[5mC]*eT*eT*d[5mC]*dT*dT*dG*d[5mC]*dA*dG*dA*dA*dG*eA*eG*e[5mC]*eT*eG; antisense) [ISIS 206172] | at least 65%
tcgagggtcagctggagcag (eT*e[5mC]*eG*eA*eG*dG*dG*dT*d[5mC]*dA*dG*d[5mC]*dT*dG*dG*eA*eG*e[5mC]*eA*eG; antisense) [ISIS 206188] | at least 65%
tggatggaattcttcacatc (eT*eG*eG*eA*eT*dG*dG*dA*dA*dT*dT*d[5mC]*dT*dT*d[5mC]*eA*e[5mC]*eA*eT*e[5mC]; antisense) [ISIS 206183] | at least 65%
tgtccatgctcttgatgatg (eT*eG*eT*e[5mC]*e[5mC]*dA*dT*dG*d[5mC]*dT*d[5mC]*dT*dT*dG*dA*eT*eG*eA*eT*eG; antisense) [ISIS 206199] | at least 65%
ttcttccctccaggtgcaac (eT*eT*e[5mC]*eT*eT*d[5mC]*d[5mC]*d[5mC]*dT*d[5mC]*d[5mC]*dA*dG*dG*dT*eG*e[5mC]*eA*eA*e[5mC]; antisense) [ISIS 206166] | at least 65%

From patent publication US20040014047A1, “Antisense modulation of LIM domain kinase 1 expression” (Isis Pharmaceuticals Inc., priority 2002, published 2004)
